Where a name gives a salt, the structure may show the parent alone.
SMILES	melting point
Ic1ccc2oc(N3CCN4CCC3CC4)nc2c1	> 300 °C
O=[N+]([O-])c1ccc2nc(N3CCN4CCC3CC4)oc2c1	296.4 °C
c1ccc2cc3oc(N4CCN5CCC4CC5)nc3cc2c1	> 300 °C
c1ccc(-c2ccc3oc(N4CCN5CCC4CC5)nc3c2)cc1	> 300 °C
c1ccc(-c2ccc3nc(N4CCN5CCC4CC5)oc3c2)cc1	281.3 °C
c1ccc2c(c1)ccc1oc(N3CCN4CCC3CC4)nc12	167.2 °C
c1cncc(-c2ccc3oc(N4CCN5CCC4CC5)nc3c2)c1	> 300 °C
O=[N+]([O-])c1cc2oc(N3CCN4CCC3CC4)nc2cc1Cl (as salt: hydrochloride)	> 300 °C
O=[N+]([O-])c1cc2nc(N3CCN4CCC3CC4)oc2cc1Cl	242.3 °C
Brc1cnc2oc(N3CCN4CCC3CC4)nc2c1	> 300 °C
O=[N+]([O-])c1ccc2oc(N3CCN4CCC3CC4)nc2c1	240.2 °C
O=[N+]([O-])c1cccc2oc(N3CCN4CCC3CC4)nc12	232.1 °C
c1ccc2[nH]c(N3CCN4CCC3CC4)nc2c1	> 300 °C

— US6809094B2, “Pharmaceutical composition for the treatment of CNS and other disorders” (Pfizer Inc, priority 2000, dated 2004)
